# Source: patent publication US8952024B2, “Herbicidal pyrimidone derivatives” (E I du Pont de Nemours and Company, priority 2009, dated 2015)
# What was measured:
# Assay type in all cases: in vivo
# [1] = test system: barnyardgrass (Echinochloa crus-galli); experiment: Test B flooded paddy test
# How it was run: (§1)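 Flooded-pot test: water raised to 3 cm above soil when treating, compound put in the water, level unchanged thereafter. Plants were at 2 leaves. Readout after 13 to 15 days, visual, relative to controls; 0 signifies no effect and 100 complete control.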
# [2] = test system: umbrella sedge (Cyperus difformis); experiment: Test B flooded paddy test
# How it was run: as §1
# [3] = test system: ducksalad (Heteranthera limosa); experiment: Test B flooded paddy test
# How it was run: as §1
# rice (Oryza sativa) = experiment: Test B flooded paddy test
# How it was run: as §1
# [4] = test system: pigweed (Amaranthus retroflexus); experiment: Test B pre-/postemergence plant response
# How it was run: (§2)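 Response scores were assigned visually after 13 to 15 days in a greenhouse, comparing treated pots with controls on a 0–100 scale where 100 denotes complete control. Preemergence treatments went onto freshly seeded loam/sand soil; postemergence treatments onto plants 2 to 18 cm tall.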
# [5] = test system: bermudagrass (Cynodon dactylon); experiment: Test B pre-/postemergence plant response
# How it was run: as §2
# [6] = test system: ragweed (common ragweed, Ambrosia elatior); experiment: Test B pre-/postemergence plant response
# How it was run: as §2
# corn (Zea mays) = experiment: Test B pre-/postemergence plant response
# How it was run: as §2
# [7] = test system: johnsongrass (Sorghum halepense); experiment: Test B pre-/postemergence plant response
# How it was run: as §2
# wild oat (Avena fatua) = experiment: Test B pre-/postemergence plant response
# How it was run: as §2
# [8] = test system: cocklebur (Xanthium strumarium); experiment: Test B pre-/postemergence plant response
# How it was run: as §2
# [9] = test system: lambsquarters (Chenopodium album); experiment: Test B pre-/postemergence plant response
# How it was run: as §2
# [10] = test system: green foxtail (Setaria viridis); experiment: Test B pre-/postemergence plant response
# How it was run: as §2
# [11] = test system: giant foxtail (Setaria faberii); experiment: Test B pre-/postemergence plant response
# How it was run: as §2
# kochia (Kochia scoparia) = experiment: Test B pre-/postemergence plant response
# How it was run: as §2
# soybean (Glycine max) = experiment: Test B pre-/postemergence plant response
# How it was run: as §2
# [12] = 250 g ai/ha, flooded paddy test, visual rating on 0 to 100 scale (0 no effect, 100 complete control) after 13 to 15 days
# [13] = Flood (flooded paddy test), 62 g ai/ha, scale 0 to 100, 0 is no effect, 100 is complete control, 13 to 15 days
# [14] = 250 g ai/ha, Preemergence, 0 to 100 scale
# [15] = Postemergence, 31 g ai/ha, scale 0 to 100 (0 no effect, 100 complete control)
# [16] = Postemergence, 62 g ai/ha, scale 0 (no effect) to 100 (complete control), 13 to 15 days
# [17] = Postemergence, 125 g ai/ha, visual rating after 13 to 15 days, scale 0 (no effect) to 100 (complete control)
# [18] = Postemergence, 250 g ai/ha, scale 0 to 100
# [19] = Preemergence, 31 g ai/ha, scale 0 to 100 (0 no effect, 100 complete control)
# [20] = Preemergence, 62 g ai/ha, scale 0 to 100, 0 no effect, 100 complete control
# [21] = Preemergence, 125 g ai/ha, 0 to 100 scale
smiles,measurement,setting,value
Cc1cccc(-n2c(-c3ccccc3)ncc(C(=O)C3=C(O)CCCC3=O)c2=O)c1C [Compound 27],"Plant response rating, Flood, Barnyardgrass",[1]; [12],40
same,"Plant response rating, Barnyardgrass",[1]; [13],0
same,"Plant response rating, Flood, Sedge, Umbrella",[2]; [12],85
same,"Plant response rating, Sedge, Umbrella",[2]; [13],75
same,"Plant response rating, Flood, Ducksalad",[3]; [12],85
same,"Plant response rating, Ducksalad",[3]; [13],75
same,"Plant response rating, Flood, Rice",rice (Oryza sativa); [12],0
same,"Plant response rating, Rice",rice (Oryza sativa); [13],0
same,"Plant response rating, Pigweed",[4]; [14],100
same,"Plant response rating, Pigweed",[4]; [15],98
same,"Plant response rating, Pigweed",[4]; [16],98
same,"Plant response rating, Pigweed",[4]; [17],100
same,Pigweed plant response rating,[4]; [18],100
same,"Plant response rating, Pigweed",[4]; [19],100
same,"Plant response rating, Pigweed",[4]; [20],100
same,Pigweed plant response rating,[4]; [21],100
same,"Plant response rating, Bermudagrass",[5]; [14],100
same,"Plant response rating, Bermudagrass",[5]; [15],70
same,"Plant response rating, Bermudagrass",[5]; [16],90
same,"Plant response rating, Bermudagrass","[5]; Postemergence, 125 g ai/ha, scale 0 to 100 (0 no effect, 100 complete control), 13 to 15 days",100
same,Bermudagrass plant response rating,[5]; [18],100
same,"Plant response rating, Bermudagrass",[5]; [19],70
same,"Plant response rating, Bermudagrass",[5]; [20],98
same,Bermudagrass plant response rating,[5]; [21],100
same,"Plant response rating, Ragweed",[6]; [14],100
same,"Plant response rating, Ragweed",[6]; [15],85
same,"Plant response rating, Ragweed",[6]; [16],98
same,"Plant response rating, Ragweed",[6]; [17],100
same,Ragweed plant response rating,[6]; [18],100
same,"Plant response rating, Ragweed",[6]; [19],85
same,"Plant response rating, Ragweed",[6]; [20],85
same,Ragweed plant response rating,[6]; [21],100
same,"Plant response rating, Corn",corn (Zea mays); [14],0
same,"Plant response rating, Corn",corn (Zea mays); [15],35
same,"Plant response rating, Corn",corn (Zea mays); [16],40
same,"Plant response rating, Corn",corn (Zea mays); [17],50
same,Corn plant response rating,corn (Zea mays); [18],70
same,"Plant response rating, Corn",corn (Zea mays); [19],0
same,"Plant response rating, Corn",corn (Zea mays); [20],0
same,Corn plant response rating,corn (Zea mays); [21],0
same,"Plant response rating, Johnsongrass",[7]; [14],85
same,"Plant response rating, Johnsongrass",[7]; [15],40
same,"Plant response rating, Johnsongrass",[7]; [16],45
same,"Plant response rating, Johnsongrass",[7]; [17],45
same,Johnsongrass plant response rating,[7]; [18],80
same,"Plant response rating, Johnsongrass",[7]; [19],0
same,"Plant response rating, Johnsongrass",[7]; [20],5
same,Johnsongrass plant response rating,[7]; [21],50
same,"Plant response rating, Oat, Wild",wild oat (Avena fatua); [14],50
same,"Plant response rating, Oat, Wild",wild oat (Avena fatua); [15],45
same,"Plant response rating, Oat, Wild",wild oat (Avena fatua); [16],50
same,"Plant response rating, Oat, Wild",wild oat (Avena fatua); [17],50
same,"Oat, Wild plant response rating",wild oat (Avena fatua); [18],65
same,"Plant response rating, Oat, Wild",wild oat (Avena fatua); [19],0
same,"Plant response rating, Oat, Wild",wild oat (Avena fatua); [20],0
same,"Oat, Wild plant response rating",wild oat (Avena fatua); [21],30
same,"Plant response rating, Cocklebur",[8]; [14],90
same,"Plant response rating, Cocklebur",[8]; [15],90
same,"Plant response rating, Cocklebur",[8]; [16],95
same,"Plant response rating, Cocklebur",[8]; [17],95
same,Cocklebur plant response rating,[8]; [18],98
same,"Plant response rating, Cocklebur",[8]; [19],0
same,"Plant response rating, Cocklebur",[8]; [20],85
same,Cocklebur plant response rating,[8]; [21],85
same,"Plant response rating, Lambsquarters",[9]; [14],100
same,"Plant response rating, Lambsquarters",[9]; [15],90
same,"Plant response rating, Lambsquarters",[9]; [16],95
same,"Plant response rating, Lambsquarters",[9]; [17],95
same,Lambsquarters plant response rating,[9]; [18],98
same,"Plant response rating, Lambsquarters",[9]; [19],100
same,"Plant response rating, Lambsquarters",[9]; [20],100
same,Lambsquarters plant response rating,[9]; [21],100
same,"Plant response rating, Foxtail, Green",[10]; [14],80
same,"Plant response rating, Foxtail, Green",[10]; [15],80
same,"Plant response rating, Foxtail, Green",[10]; [16],80
same,"Plant response rating, Foxtail, Green",[10]; [17],80
same,"Foxtail, Green plant response rating",[10]; [18],90
same,"Plant response rating, Foxtail, Green",[10]; [19],0
same,"Plant response rating, Foxtail, Green",[10]; [20],30
same,"Foxtail, Green plant response rating",[10]; [21],50
same,"Plant response rating, Foxtail, Giant",[11]; [14],95
same,"Plant response rating, Foxtail, Giant",[11]; [15],65
same,"Plant response rating, Foxtail, Giant",[11]; [16],85
same,"Plant response rating, Foxtail, Giant",[11]; [17],90
same,"Foxtail, Giant plant response rating",[11]; [18],90
same,"Plant response rating, Foxtail, Giant",[11]; [19],0
same,"Plant response rating, Foxtail, Giant",[11]; [20],5
same,"Foxtail, Giant plant response rating",[11]; [21],85
same,"Plant response rating, Kochia",kochia (Kochia scoparia); [14],100
same,"Plant response rating, Kochia",kochia (Kochia scoparia); [17],100
same,Kochia plant response rating,kochia (Kochia scoparia); [18],100
same,"Plant response rating, Kochia",kochia (Kochia scoparia); [19],100
same,"Plant response rating, Kochia",kochia (Kochia scoparia); [20],100
same,Kochia plant response rating,kochia (Kochia scoparia); [21],100
same,"Plant response rating, Soybean",soybean (Glycine max); [14],90
same,"Plant response rating, Soybean",soybean (Glycine max); [15],95
same,"Plant response rating, Soybean",soybean (Glycine max); [16],95
same,"Plant response rating, Soybean",soybean (Glycine max); [17],95
same,Soybean plant response rating,soybean (Glycine max); [18],100
same,"Plant response rating, Soybean",soybean (Glycine max); [19],70
same,"Plant response rating, Soybean",soybean (Glycine max); [20],70
same,Soybean plant response rating,soybean (Glycine max); [21],80
